The values below are quoted from earlier work in patent publication US20190008969A1, “COMPOSITIONS FOR DRUG DELIVERY” (Tioga Research, Inc., priority 2017, published 2019).

For the data set the following is noted: spray format at 0.25 wt %.

Structures are written as SMILES.

`C[C@@H]1C[C@H]2[C@@H]3CCC4=CC(=O)C=C[C@]4(C)[C@@]3(F)[C@@H](O)C[C@]2(C)[C@H]1C(=O)CO` [desoximetasone, (8S,9S,10S,11S,13S,14S,16R,17S)-9-fluoro-11-hydroxy-17-(2-hydroxyacetyl)-10,13,16-trirmethyl-7,8,11,12,14,15,16,17-octahydro-6H-cyclopenta[a]phenanthren-3-one]: the “Efficacy in treating psoriasis” value is reported as “efficacious” and the “Safety in treating psoriasis” value is listed as “safe”.
